One data set has as its system Pseudomonas aeruginosa. The experiment in a line: Antimicrobial activity, agar dilution method. Format: cell-based. The procedure: (§1) All p-terphenyls (1–7) were tested for their cytotoxicity against the L-02, MGC-803, HCT-116, BEL-7402, A549, SH-SY5Y, Hela, U87, K562, HL-60, HO8910, and MCF-7 cell lines using either the SRB or the MTT method with adriamycin as positive control. […] Recently, we have also reported nine prenylated p-terphenyls from Aspergillus candidus LDJ-5 [6]. Most of the prenylated p-terphenyls were cytotoxic. Additionally, comparing to prenylcandidusin B and prenylcandidusin C, compounds 2 and 3 were distinguished by the presence of one hydroxy group and the lack of the isoprenyl group on ring C (C-3″). […] The antimicrobial activities of compounds 1–7 were evaluated in vitro against Proteus species, Pseudomonas aeruginosa, Bacillus subtilis, B. cereus, and Mycobacterium phlei. […] Asperterphenyllin A (1) was also tested for antiviral activity and protein tyrosine phosphatase 1B (PTP1B) inhibitory activity. The antiviral activity of asperterphenyllin A (1) was evaluated against the influenza A virus (H1N1) using the cytopathic effect (CPE) inhibition assay. […] Protein tyrosine phosphatase 1B (PTP1B) has been reported to be a novel drug target for diabetes and obesity. It has also been considered to be involved in tumorigenesis.
(§2) Antimicrobial activities were evaluated as previously reported by using the agar dilution method. The five microbial strains included Proteus sp., Pseudomonas aeruginosa, Bacillus subtilis, B. cereus, and Mycobacterium phlei. Ciprofloxacin was used as positive control. All strains were donated by the Qingdao municipal hospital.
(In general: In agar dilution, organisms are placed on agar that contains the substance at set levels.)

The subject of another data set is Mycobacterium phlei. The experiment in a line: Antimicrobial activity, agar dilution method. Format: cell-based. Conditions: Mycolicibacterium phlei. The procedure: as §1, §2
For a further data set, the system named is Bacillus cereus. The experiment in a line: Antimicrobial activity, agar dilution method. Format: cell-based. The procedure:
as §1, §2

The next data set has as its system Proteus species. In words: Antimicrobial activity, agar dilution method. Format: cell-based. As for the experimental part:
as §1, §2

For a further data set, the system named is Bacillus subtilis. The experiment in a line: Antimicrobial activity, agar dilution method. Format: cell-based. The procedure:
as §1, §2

Data set [1] has as its target T1, protein tyrosine phosphatase 1B (PTP1B) (Homo sapiens, UniProt P18031).
T1 sequence (P18031 1-435): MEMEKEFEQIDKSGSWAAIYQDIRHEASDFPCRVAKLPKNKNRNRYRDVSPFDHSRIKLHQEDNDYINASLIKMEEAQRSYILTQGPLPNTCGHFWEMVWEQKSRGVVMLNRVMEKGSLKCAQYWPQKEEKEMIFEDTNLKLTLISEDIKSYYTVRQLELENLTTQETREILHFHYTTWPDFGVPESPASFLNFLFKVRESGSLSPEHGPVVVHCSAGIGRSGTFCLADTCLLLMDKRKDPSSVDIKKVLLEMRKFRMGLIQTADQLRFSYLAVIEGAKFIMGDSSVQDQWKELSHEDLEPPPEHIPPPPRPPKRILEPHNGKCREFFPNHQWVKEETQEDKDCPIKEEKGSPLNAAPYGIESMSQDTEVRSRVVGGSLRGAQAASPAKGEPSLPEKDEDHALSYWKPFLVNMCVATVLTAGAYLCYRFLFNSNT
In words: PTP1B inhibitory assay (pNPP hydrolysis). Format: biochemical. The following applies: pNPP substrate, room temperature.

In another data set the test system is influenza A virus (H1N1). In words: Anti-influenza A viral (H1N1) CPE inhibition assay. Format: cell-based. As for the experimental part:
as §1
The antiviral activity of compound 1 against influenza A virus (H1N1) was evaluated by the CPE inhibition assay. […]

Data set [2] relates to L-02, MGC-803, HCT-116, BEL-7402, A549, SH-SY5Y, Hela, U87, K562, HL-60, HO8910, and MCF-7 cell lines. The experiment in a line: Cytotoxicity against the panel of cell lines (SRB or MTT method). Format: cell-based, human. The following applies: for IC50: Homo sapiens; for cytotoxicity effects: compared with prenylcandidusins on K562. The procedure:
as §1
(§3) The cytotoxicity of 1–7 and positive control was evaluated against human leukemia cell lines K562 and HL-60 (using the MTT method), human normal liver cell line L-02, human gastric cancer cell lines MGC-803, human colon cancer lines HCT-116, human hepatocacinoma cell line BEL-7402, human lung cancer cell lines A549, human neuroblastoma cell line SH-SY5Y, human cervical cancer cell lines HeLa, human glioma cell lines U87, human ovarian cancer cell lines HO-8910, and human breast cancer cell lines MCF-7 (using the SRB method). Adriamycin was used as positive control. The detailed methodologies for biological testing have been described in previous reports. All the cell lines were purchased from the Institute of Biochemistry and Cell Biology, Chinese Academy of Sciences (Shanghai, China).

In the next data set the test system is SH-SY5Y cell line. The experiment in a line: Cytotoxicity, SRB method. Format: cell-based. The following applies: SH-SY5Y human neuroblastoma cell line. As for the experimental part:
as §1, §3

The test system of a further data set is U87 cell line. The experiment in a line: Cytotoxicity, SRB method. Format: cell-based. Conditions: U-87 MG, U87 human glioma cell line. The procedure:
as §1, §3
(In general: In SRB staining, fixed cells bind dye roughly in proportion to their protein.)

For a further data set, the system named is A549 cell line. The experiment in a line: Cytotoxicity, SRB method. Format: cell-based. Conditions: A549 human lung cancer cell line. As for the experimental part: as §1, §3
A short description of a further data set: Cytotoxicity, SRB method. Format: cell-based. Conditions: L-02 normal liver cells, L-02 human normal liver cell line. As for the experimental part: as §1, §3
Another data set relates to MGC-803 cell line. In words: Cytotoxicity, SRB method. Format: cell-based. Conditions: MGC-803 human gastric cancer cell line. As for the experimental part: as §1, §3
A further data set concerns HCT-116 cell line. The experiment in a line: Cytotoxicity, SRB method. Format: cell-based. Conditions: HCT-116 human colon cancer cell line. As for the experimental part: as §1, §3
The subject of the next data set is HO8910 cell line. In words: Cytotoxicity, SRB method. Format: cell-based. The following applies: HO-8910, HO8910 human ovarian cancer cell line. As for the experimental part:
as §1, §3

In a further data set the test system is Hela cell line. The experiment in a line: Cytotoxicity, SRB method. Format: cell-based. Conditions: Hela human cervical cancer cell line. The procedure: as §1, §3
Another data set has as its system BEL-7402 cell line. The experiment in a line: Cytotoxicity, SRB method. Conditions: BEL-7402 human hepatocarcinoma cell line. Format: cell-based. The procedure:
as §1, §3

The subject of a further data set is K562 cell lines. Also noted: method as in PMID 31827255. The following applies: cited from earlier work.
The mark [3] stands for this setting: all twelve tested cell lines, SRB or MTT, read-out: IC50 against all tested cell lines.

Values after ≈ are worked out from the molar mass of the structure shown. Where two headings read alike, the source gives them in different places.

In the case of `O=C(O)c1cn(C2CC2)c2cc(N3CCNCC3)c(F)cc2c1=O` [Ciprofloxacin, reference compound], the minimum inhibitory concentration (MIC) (commonly the lowest concentration found to suppress growth) against Pseudomonas aeruginosa was 0.52 µg/mL (≈ 1.57 µM); in the data set with Mycobacterium phlei it was 0.52 µg/mL (≈ 1.57 µM); in the data set with Bacillus cereus it was 2.07 µg/mL (≈ 6.25 µM); with Proteus species it was 0.26 µg/mL (≈ 0.785 µM); against Bacillus subtilis, 4.14 µg/mL (≈ 12.5 µM).
Turning to `COc1c(-c2ccc(O)c(O)c2)cc(OC)c2c1oc1c(-c3c(O)c(O)cc4c3oc3c(OC)c(-c5ccc(O)c(O)c5)cc(OC)c34)c(O)c(O)cc12` [Compound 1, Asperterphenyllin A], the IC50 (commonly the concentration needed to halve the response being measured) in [1] is 21000 nM; with influenza A virus (H1N1) (H1N1, CPE inhibition assay, read-out: IC50 anti-influenza virus A (H1N1) activity) it was 53000 nM; in [2] (setting [3]) it was > 50000 nM. Further, the MIC against Pseudomonas aeruginosa, against Mycobacterium phlei, in the data set with Bacillus cereus, against Proteus species and against Bacillus subtilis was > 200 µg/mL each time.
Regarding `COc1cc2oc3c(OC)c(-c4ccc(O)c(O)c4)cc(OC)c3c2cc1OC` [Compound 2, Asperterphenyllin B], the MIC against Pseudomonas aeruginosa was 40 µg/mL (≈ 101 µM); with Mycobacterium phlei it was 79 µg/mL (≈ 199 µM); in the data set on Bacillus cereus, > 200 µg/mL; in the data set with Proteus species, > 200 µg/mL; against Bacillus subtilis, > 200 µg/mL. For the same compound, the IC50 in data set [2] (setting [3]) is > 50000 nM. The cytotoxicity effects entry in data set [2] is on record as “did not show any cytotoxicity effects”.
`COc1cc2oc3c(OC)c(-c4ccc(O)c(O)c4)cc(OC)c3c2cc1O` [Compound 3, Asperterphenyllin C]: the MIC was > 200 µg/mL against Pseudomonas aeruginosa; 38 µg/mL (≈ 99.4 µM) in the data set with Mycobacterium phlei; > 200 µg/mL against Bacillus cereus; 19 µg/mL (≈ 49.7 µM) against Proteus species; 38 µg/mL (≈ 99.4 µM) in the data set with Bacillus subtilis. Further, the IC50 in data set [2] (setting [3]) is > 50000 nM. For the same compound, the cytotoxicity effects entry in data set [2] is recorded as “did not show any cytotoxicity effects”.
In the case of `COc1cc(-c2ccc(O)cc2)c(OC)c(OC)c1-c1ccc(O)c(O)c1` [Compound 4, Asperterphenyllin D], the MIC was > 200 µg/mL against Pseudomonas aeruginosa; > 200 µg/mL in the data set with Mycobacterium phlei; 70 µg/mL (≈ 190 µM) with Bacillus cereus; > 200 µg/mL against Proteus species; > 200 µg/mL in the data set on Bacillus subtilis. In addition, the IC50 in data set [2] (setting [3]) was > 50000 nM.
For `COc1cc(-c2c(OC)cc(-c3ccccc3)c(OC)c2O)ccc1O` [Compound 5, Asperterphenyllin E], the MIC with Pseudomonas aeruginosa was 70 µg/mL (≈ 199 µM); in the data set on Mycobacterium phlei it was 70 µg/mL (≈ 199 µM); with Bacillus cereus, 70 µg/mL (≈ 199 µM); with Proteus species, 35 µg/mL (≈ 99.3 µM); with Bacillus subtilis, 70 µg/mL (≈ 199 µM). Besides, the IC50 in [2] (setting [3]) is > 50000 nM.
Regarding `COc1cc(-c2ccc(O)c(O)c2)c(OC)c(O)c1-c1ccccc1` [Compound 6, Asperterphenyllin F], the MIC against Pseudomonas aeruginosa, in the data set with Mycobacterium phlei, against Bacillus cereus, against Proteus species and in the data set with Bacillus subtilis was > 200 µg/mL throughout. The IC50 in [2] (setting [3]) was > 50000 nM.
Turning to `COc1cc(-c2ccc(O)cc2)c(OC)c(O)c1-c1ccc(OC/C=C(\C)CO)c(O)c1` [Compound 7, Asperterphenyllin G], the IC50 with SH-SY5Y cell line was found to be 600 nM; in the data set on U87 cell line, 900 nM; in the data set on A549 cell line, 400 nM; in “Cytotoxicity, SRB method”, 1700 nM; with MGC-803 cell line, 1000 nM; in the data set with HCT-116 cell line, 800 nM. Further, the IC50 with HO8910 cell line is 1300 nM; in the data set with Hela cell line it was 1700 nM; with BEL-7402 cell line, 6000 nM; in data set [2] (read-out: IC50 values against nine cell lines (range)) it was 400 to 1700 nM. Besides, the MIC against Pseudomonas aeruginosa was > 200 µg/mL; in the data set with Mycobacterium phlei, > 200 µg/mL; against Bacillus cereus, 87 µg/mL (≈ 198 µM); against Proteus species, > 200 µg/mL; against Bacillus subtilis it was > 200 µg/mL.
With `COc1cc2oc3c(OC)c(-c4ccc(O)c(CC=C(C)C)c4)cc(OC)c3c2cc1OC` [Prenylcandidusin B], the “inhibitory activity against K562 cell lines” value with K562 cell lines is on record as “moderate inhibitory activity”.
On to `COc1cc2oc3c(OC)c(-c4ccc(O)c(CC=C(C)C)c4)cc(OC)c3c2cc1O` [prenylcandidusin C], for which the “inhibitory activity against K562 cell lines” value in the data set with K562 cell lines is “moderate inhibitory activity”.
As for `NC(=O)c1ncn([C@@H]2O[C@H](CO)[C@@H](O)[C@H]2O)n1` [ribavirin, reference compound], the IC50 in the data set with influenza A virus (H1N1) (H1N1, read-out: IC50 anti-influenza virus A (H1N1) activity) came out at 35000 nM.

The record behind these values is PMC7912881, “Polyhydroxy p-Terphenyls from a Mangrove Endophytic Fungus Aspergillus candidus LDJ-5” (Marine Drugs, 2021).
